Entries after “also recorded” stand apart in the source; their conditions may differ.
What was measured:
platelet cyclooxygenase = test: Thromboxane B2 synthesis by arachidonic acid-stimulated platelet-rich plasma in vitro; assay type: cell-based, male Sprague-Dawley rats; settings: for Effect on TX B2 formation / platelet cyclooxygenase: arachidonic acid-stimulated PRP
Text: Was done manually by the method of Brecher and Conkite (1953) using phase contrast microscopy (Balplan) with a 40×annulus, 40×phase objective, and 10×ocular (total of 400×), and a special platelet counting chamber (American Optical Corp., Buffalo, N.Y.) and dilution with 1% ammonium oxalate. The platelet-rich plasma (PRP) was adjusted by dilution with platelet-poor plasma (PPP) to give a final count of 1×10^9 platelets/ml.
Arachidonic acid (as the sodium salt, >99.0% pure) was obtained from Sigma Chemical Co. and a stock solution of 34.5 mM was prepared by dissolving in isotonic saline. 20 μl of the stock solution were added to 440 μl of PRP (400 μl of PRP and 20 or 40 μl of treatment solution ±20 μl of saline) to make a 23 fold dilution. The final concentration of AA in PRP was 1.5 mM.
EDTA solution was prepared by adding 2 gm disodium EDTA and 0.8 gm NaCl and were adjusted to pH 7.4 with NaOH and made up to a final volume of 100 ml in distilled water. ASA solution was prepared by dissolving 30 mg in 10 ml of isotonic saline to make a solution of 3 mg/ml.
950 μl of EDTA solution were added to 50 μl of ASA solution and the mixture was vortexed. 40 μl of the mixture were pipetted in the experiment test tubes to stop further prostaglandin production.
Platelet-rich plasma (PRP) was prepared from male Sprague-Dawley rats (300-325 gm). The blood was collected by heart puncture and added to 3.8% citrate solution, final volume 9:1, blood:citrate. The blood was centrifuged at 120×g (750 rpm) for 15 minutes at 4° C. to obtain PRP. The rest of the blood was spun at 1800×g (3000 rpm) for 10 minutes to get the PPP which was used later for dilution of the PRP to achieve the final desired platelet concentration of 1×10^9 platelets/ml. 400 μl of PRP, containing 4×10^8 platelets, were pipetted in polypropylene tubes and the following treatment groups were studied:
1--Baseline (-ve control) tubes: to measure the baseline production of Thromboxane B2 (TX B2) by platelets during the time of the experiment, 60 μl of saline were added and left for 10 minutes in a shaking water bath at 37° C.
2--Control (+ve control) tubes: 20 μl of arachidonic acid (AA) solution were added to achieve a final concentration of 1.5 mM and the tubes were incubated […].
3--ASA and/or SAM treatment tubes: 20 μl of ASA (final conc. 130 μg/ml), 20 μl of SAM solution (final conc. 40 μg/ml), 20 μl of ASA/SAM(L) solution (final conc. 130/40 μg/ml) or 20 μl of ASA/SAM(H) solution (final conc. 130/120 μg/ml) were added to PRP together with 20 μl of saline for 10 minutes, then 20 μl of AA solution were added for additional 10 minutes.
4--ASA/SA treatment: 20 μl of ASA/SA solution (final conc. 130/130 μg/ml) and 20 μl of saline were added to the tubes for 10 minutes before AA was added for further 10 minutes.
5--ASA/SA/SAM treatment: 20 μl of ASA/SA solution (130/130 μg/ml as final conc.) and 20 μl of […] in low (L) or high (H) concentrations (40 or 120 μg/ml, final conc.) were added simultaneously to PRP followed 10 minutes later by AA.
6--SAM/SA treatment: 20 μl of SAM solution (final conc. 40 μg/ml) and 20 μl of SA solution (final conc. 130 μg/ml) were added followed 10 minutes later by AA for additional 10 minutes.
Also, the effect of SAM when administered first to the platelets followed 10 minutes later by ASA was studied to know whether the effect of SAM is time dependent or not.
During the treatment, all the tubes were incubated at 37° C. in a shaking water bath. Ten minutes after the addition of AA, or saline (for the control tubes), the experiment was ended by addition of 40 μl of EDTA/ASA solution. The tubes were immediately centrifuged at 1800×g for 15 minutes at 4° C. to precipitate the platelets and 100 μl of the supernatant were obtained for estimation of their content of TX B2 using a specific radioimmunoassay (Amersham International) (vide infra).
Radioimmunoassay Procedure for Measurement of Thromboxane B2 and 6-keto PG F1alpha […]

[1] = cited from earlier work; for Absorption (ASA) / bioavailability (SAM) from oral solution vs solid forms: oral solutions vs tablets or suspensions
[2] = Plasma kinetics of total 14C after oral 14C-aspirin alone or with salicylamide; assay type: in vivo, male Sprague-Dawley rats; settings: for Effect on AUC.infin. of 14C / Effect on total body clearance (ClT) of 14C: after 14C-ASA; for AUC.infin. of 14C: mean ± SE, n=6
Description: Male adult Sprague-Dawley rats (300-325 gm) obtained from Charles River Breeding Laboratory, N. Wilmington, Mass. were quarantined for one week. All animals were identified by ear punching. Food and water were provided ad libitum. The animals were maintained on rodent lab chow diet in a controlled environment with 50% humidity and 12 hour light/dark cycle.
Two dose combinations were employed. The low dose was 10 and/or 3 mg/kg of ASA and/or SAM, respectively, while the high dose was double the low dose. These doses were approximately equal (w/w) to that in commercially available combinations, e.g., BC® formula, when administered to humans.
Rats were divided into 2 groups; the first group consisted of 30 rats which were assigned to 5 subgroups, 6 rats each, according to the following treatment scheme:
The second group consisted of 4 subgroups and were administered double the dose received by the first group (with the exception of subgroup III).
The rats were fasted overnight (~18 hr.) before administration of the treatments and were allowed water ad libitum. The drug(s) to be given were prepared fresh in the morning of the study, dissolved in 2.5 ml of deionized water and gavaged to rats.
The specific activity of ASA was 739 and 369 dpm/μg for the low and high dose treatments, respectively.
The samples were collected by heparinized plastic syringes and transferred to polyethylene test tubes. The samples, ~300 μl each, were rapidly centrifuged at 1800×g for 15 minutes at 4° C.
The terminal elimination rate constant (ke) was estimated by linear regression of the terminal β phase of the plasma concentration vs. time curves. The area under the curve (AUC.infin.) was calculated by using the trapezoidal method from zero to the last measured plasma concentration. The half-life of elimination (t1/2β) was obtained by the equation t1/2β =0.693/ke.
Total body clearance (ClT) was estimated by the equation ClT =Dose/AUC assuming a complete absorption of ASA and SAM (Iwamoto et al., 1982; Iwamoto et al., 1983). The apparent volume of distribution Vd was calculated from the formula, Vd =ClT /ke.

[3] = oral 14C-ASA 10 mg/kg, alone or with SAM 3 mg/kg
[4] = oral 14C-ASA 20 mg/kg, alone or with SAM 6 mg/kg

## CC(=O)Oc1ccccc1C(=O)O [ASA, acetylsalicylic acid]
Platelet cyclooxygenase
  Effect of ASA addition to SAM/SA on TX B2: significant blocking of platelet cyclooxygenase
  Effect on TX B2 formation / platelet cyclooxygenase: significant inhibition of TX B2 formation
[1]; children
  Apparent volume of distribution: 0.12 to 0.14 L/kg
[1]; oral aspirin, man
  Fraction reaching the peripheral circulation intact: about 68%
[1]; oral soluble aspirin preparation, humans
  Time of peak plasma concentration: 15 to 25 min
[1]
  Absorption (ASA) / bioavailability (SAM) from oral solution vs solid forms: superior
[1]; oral, stomach and upper small intestine
  Absorption: rapidly and usually completely absorbed

## CC(=O)Oc1ccccc1[14C](=O)O [^14 C-ASA]
[2]
  Effect on AUC.infin. of 14C: showed a dose dependent increase
  Effect on total body clearance (ClT) of 14C: decreased dose-dependently
[2]; high dose, 14C-ASA alone or with SAM
  T1/2β of 14C: 5.1 h
[2]; low dose of 14C-ASA alone or in combination with SAM, from 6-24 hour plasma concentrations, 10 mg/kg
  Elimination half-life of 14C: 2.8 to 3.2 h
[2]; [3]
  AUC4hr of 14C (first 4 hr): 99.6 ± 10.6 µg·h/mL
  C1T total body clearance of 14C: 10.3 ± 1.1 mL/h
  Cmax of 14C: 29900 ± 2300 ng/mL
  T1/2abs absorption half-life of 14C: 9.1 ± 1.1 min
  T1/2β elimination half-life of 14C: 3.2 ± 0.2 h
  Vd apparent volume of distribution of 14C: 46.1 ± 2.4 mL
  AUC.infin. of 14C: 345.7 ± 38.3 µg·h/mL
[2]; [4]
  AUC4hr of 14C (first 4 hr): 222.2 ± 15.3 µg·h/mL
  C1T total body clearance of 14C: 7.7 ± 0.8 mL/h
  Cmax of 14C: 65100 ± 8200 ng/mL
  T1/2abs absorption half-life of 14C: 8.9 ± 0.9 min
  Vd apparent volume of distribution of 14C: 85.5 ± 28.1 mL
  AUC.infin. of 14C: 810.6 ± 81.7 µg·h/mL

## NC(=O)c1ccccc1O [SAM, Salicylamide]
Platelet cyclooxygenase; SAM 40 μg/ml with ASA/SA
  Reversal of SA effect by SAM: ~ 60%
Platelet cyclooxygenase; SAM 120 μg/ml with ASA/SA
  Reversal of SA effect by SAM: completely preempted SA effect
Platelet cyclooxygenase; SAM 40 or 120 μg/ml coadministered with ASA
  Effect of SAM on ASA inhibition of TX B2 synthesis: did not influence ASA inhibition of TX B2 synthesis; also recorded: did not alter ASA-induced inhibition of platelet cyclooxygenase
Platelet cyclooxygenase
  Effect on TX B2 formation / platelet cyclooxygenase: did not change TX B2 production compared to control
Platelet cyclooxygenase; platelet cyclooxygenase
  Effect on the aspirin-antagonistic effect of SA: dose-dependently quench the aspirin-antagonistic effect of SA
[2]
  Effect on AUC.infin. of 14C: further increased, albeit not significantly
  Effect on total body clearance (ClT) of 14C: tended to decrease the ClT after the high dose combination
[2]; following coadministration with 14C-ASA
  Duration of the SAM effect on plasma 14C: approximately 4 hours
[2]; high dose 14C-ASA coadministration
  Increase of Cmax of total 14C by SAM: ~25%
[2]; rat, in vivo
  Effect of SAM on 14C-ASA absorption half-life: no effect
[2]; with 14C-ASA
  Effect of SAM coadministration on Cmax / plasma level of total 14C: enhanced maximum plasma concentration (Cmax) of total ^14 C dose-dependently; also recorded: dose-dependently increases the plasma level of total ^14 C radioactivity
[1]
  Absorption (ASA) / bioavailability (SAM) from oral solution vs solid forms: superior

Reference: patent US5389621A, “Method of enhancing the anticoagulant effects of aspirin using salicylamide” (University of Medicine and Dentistry of New Jersey, priority 1994, dated 1995)
